From patent US7601332B2, “Vitamin receptor binding drug delivery conjugates” (priority 2003, dated 2009)

How the values were obtained:
[1] = tested on: M109 tumors (folate receptor-positive); test: Inhibition of subcutaneous M109 tumor growth in mice; type: in vivo; settings: Balb/c mice, s.c. M109 tumors, i.v. twice a week for 4 weeks, 2-10 μmol/kg
Experimental: The anti-tumor activity of the compounds of Examples 9b (EC111) and 9c (EC112), where the drug is daunorubicin, when administered intravenously (i.v.) to tumor-bearing animals, was evaluated in Balb/c mice bearing subcutaneous M109 tumors. Four days post tumor inoculation in the subcutis of the right axilla with 1×10^6 M109 cells, mice (5/group) were injected i.v. twice a week for 4 weeks with 2-10 μmol/kg of the compound of either Example 9b or Example 9c or with unconjugated daunorubicin or PBS. Tumor growth was measured using calipers at 3-day or 4-day intervals in each treatment group. Tumor volumes were calculated using the equation V=a×b^2/2, where “a” is the length of the tumor and “b” is the width expressed in millimeters. Animal body weight was also determined at 3-day or 4-day intervals. […]
The anti-tumor activity of the compound of Example 16b (EC145), where the drug is deacetylvinblastine monohydrazide, when administered intravenously (i.v.) to tumor-bearing animals, was evaluated in Balb/c mice bearing subcutaneous M109 tumors. […] Tumor growth was measured using calipers at 2-day or 3-day intervals in each treatment group. Tumor volumes were calculated using the equation V=a×b^2/2, where “a” is the length of the tumor and “b” is the width expressed in millimeters. […]

[2] = Toxicity based on animal body weights in tumor-bearing mice; type: in vivo; settings: Balb/c mice, s.c. M109 tumors, i.v. twice a week for 4 weeks, 2-10 μmol/kg
Experimental: The anti-tumor activity of the compounds of Examples 9b (EC111) and 9c (EC112), where the drug is daunorubicin, when administered intravenously (i.v.) to tumor-bearing animals, was evaluated in Balb/c mice bearing subcutaneous M109 tumors. Four days post tumor inoculation in the subcutis of the right axilla with 1×10^6 M109 cells, mice (5/group) were injected i.v. twice a week for 4 weeks with 2-10 μmol/kg of the compound of either Example 9b or Example 9c or with unconjugated daunorubicin or PBS. Tumor growth was measured using calipers at 3-day or 4-day intervals in each treatment group. Tumor volumes were calculated using the equation V=a×b^2/2, where “a” is the length of the tumor and “b” is the width expressed in millimeters. Animal body weight was also determined at 3-day or 4-day intervals.
The protocol was as described in Example 42 except that the compound of Example 10a (EC105) was used, where the drug is bis-indolyl-seco-CBI. The compound of Example 10a was injected at a dose of 0.3 μmol/kg. Also, two subcutaneous tumor models were tested including the M109 model (folate receptor-positive) and the 4T1 model (folate receptor-negative), and in some animals a 67-fold excess of free folate (20 μmol/kg; FA) was coinjected with the conjugate (i.e., the compound of Example 10a).

COc1cccc2c1C(=O)c1c(O)c3c(c(O)c1C2=O)C[C@@](O)(/C(CO)=N\NC(=O)CCN1C(=O)CC(SC[C@H](NC(=O)CC[C@H](NC(=O)c2ccc(NCc4cnc5nc(N)[nH]c(=O)c5n4)cc2)C(=O)O)C(=O)O)C1=O)C[C@@H]3O[C@H]1CC(N)[C@H](O)C(C)O1 (stereo partly shown) [Example 9c]
anti-tumor activity (growth of M109 tumors) [1]: effective in delaying the growth of M109 tumors
toxicity based on animal body weights [2]: no apparent toxicity

COc1cccc2c1C(=O)c1c(O)c3c(c(O)c1C2=O)C[C@@](O)(C(=O)CO)C[C@@H]3O[C@H]1C[C@H](N)[C@H](O)[C@H](C)O1 [doxorubicin]
anti-tumor activity (growth of M109 tumors) [1]: provided an anti-tumor response
toxicity based on animal body weights [2]: concomitant toxicity
